Reference: ChEMBL document CHEMBL5344485, “Discovery of CRN04894: A Novel Potent Selective MC2R Antagonist” (ACS Med Chem Lett, 2024)
One block for each compound: values may come before it.

Experiments:
in vitro [1] = settings: rat, liver microsomes
Description: Stability in rat liver microsomes assessed as half life

in vivo [2] = settings: rat, po, 10 mg/kg
[3] = target: Adrenocorticotropic hormone receptor (Homo sapiens, UniProt Q01718)
Description: Displacement of [[125I]-Tyr23]-ACTH (1-39) from human MC2R incubated for 1.5 hrs by Topcount scintillation counting method

in vitro [4] = settings: human, liver microsomes
Description: Stability in human liver microsomes assessed as half life

in vivo [5] = settings: rat, po, 10 mg/kg; remark: listed apart in the source
Description: Half life in rat at 10 mg/kg, po

in vivo [6] = settings: rat, po, 10 mg/kg; remark: listed apart in the source
Description: AUClast in rat at 10 mg/kg, po

Cytochrome P450 2C19 = Cytochrome P450 2C19 (Homo sapiens, UniProt P33261)
Cytochrome P450 2C19, sequence (P33261 whole entry): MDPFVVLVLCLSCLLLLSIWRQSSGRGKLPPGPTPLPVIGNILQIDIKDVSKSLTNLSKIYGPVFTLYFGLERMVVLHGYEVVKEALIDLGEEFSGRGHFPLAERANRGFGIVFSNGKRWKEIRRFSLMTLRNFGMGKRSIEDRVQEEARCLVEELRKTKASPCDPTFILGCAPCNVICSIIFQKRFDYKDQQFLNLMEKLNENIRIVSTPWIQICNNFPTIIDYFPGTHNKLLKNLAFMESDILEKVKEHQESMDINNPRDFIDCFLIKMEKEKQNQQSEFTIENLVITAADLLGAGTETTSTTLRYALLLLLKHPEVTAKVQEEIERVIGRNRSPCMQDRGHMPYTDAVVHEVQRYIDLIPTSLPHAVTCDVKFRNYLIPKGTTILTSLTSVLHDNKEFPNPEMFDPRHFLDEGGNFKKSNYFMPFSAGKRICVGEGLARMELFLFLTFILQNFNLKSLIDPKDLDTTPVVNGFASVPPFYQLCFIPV
Description: Inhibition of CYP2C19 (unknown origin)

in vivo [7] = settings: Sprague-Dawley, rat, plasma, po, 30 mg/kg
Description: Drug concentration in Sprague-Dawley rat plasma at 30 mg/kg, po administered as single dose and stimulated with ACTH for 4 hrs measured after 0.5 hrs

in vivo [8] = settings: Sprague-Dawley, rat, plasma, po, 3 mg/kg
Description: Drug concentration in Sprague-Dawley rat plasma at 3 mg/kg, po administered as single dose and stimulated with ACTH for 24 hrs measured after 0.5 hrs

in vivo [9] = settings: Sprague-Dawley, rat, plasma, po, 3 mg/kg; remark: listed apart in the source
Description: Drug concentration in Sprague-Dawley rat plasma at 3 mg/kg, po administered as single dose and stimulated with ACTH for 4 hrs measured after 0.5 hrs

Melanocortin receptor 3 = Melanocortin receptor 3 (Homo sapiens, UniProt P41968)
Melanocortin receptor 3, sequence (P41968 whole entry): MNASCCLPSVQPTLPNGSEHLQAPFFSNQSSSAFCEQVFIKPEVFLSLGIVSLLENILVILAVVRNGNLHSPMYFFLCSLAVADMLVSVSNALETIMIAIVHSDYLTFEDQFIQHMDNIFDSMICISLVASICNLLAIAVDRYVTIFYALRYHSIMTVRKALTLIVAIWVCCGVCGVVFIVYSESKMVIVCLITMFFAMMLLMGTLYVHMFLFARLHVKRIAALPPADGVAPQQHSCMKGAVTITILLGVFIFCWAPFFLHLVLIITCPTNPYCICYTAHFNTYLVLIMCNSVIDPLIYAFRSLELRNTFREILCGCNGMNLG

in vivo [10] = settings: rat, po, 5 mg/kg
Description: Oral bioavailability in rat at 5 mg/kg

Cytochrome P450 3A4 = Cytochrome P450 3A4 (Homo sapiens, UniProt P08684)
Cytochrome P450 3A4, sequence (P08684 whole entry): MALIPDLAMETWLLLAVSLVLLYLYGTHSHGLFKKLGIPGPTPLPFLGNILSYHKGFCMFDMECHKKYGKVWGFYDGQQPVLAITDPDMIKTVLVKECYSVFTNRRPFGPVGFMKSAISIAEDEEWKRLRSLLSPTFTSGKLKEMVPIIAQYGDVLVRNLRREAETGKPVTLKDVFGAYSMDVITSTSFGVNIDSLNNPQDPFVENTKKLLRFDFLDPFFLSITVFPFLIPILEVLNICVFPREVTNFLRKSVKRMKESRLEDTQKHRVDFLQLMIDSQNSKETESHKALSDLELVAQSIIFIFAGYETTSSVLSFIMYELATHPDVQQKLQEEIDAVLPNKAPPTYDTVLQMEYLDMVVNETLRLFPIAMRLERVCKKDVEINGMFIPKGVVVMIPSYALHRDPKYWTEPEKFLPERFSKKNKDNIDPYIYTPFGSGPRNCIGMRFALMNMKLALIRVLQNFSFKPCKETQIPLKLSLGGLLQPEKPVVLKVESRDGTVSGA
Description: Time dependent inhibition of CYP3A4 (unknown origin)

in vivo [11] = settings: rat, iv, 5 mg/kg
Description: Half life in rat at 5 mg/kg, iv

in vivo [12] = settings: Sprague-Dawley, rat, plasma, po, 30 mg/kg; remark: listed apart in the source
Description: Drug concentration in Sprague-Dawley rat plasma at 30 mg/kg, po administered as single dose and stimulated with ACTH for 24 hrs measured after 1.5 hrs

in vivo [13] = settings: Sprague-Dawley, rat, plasma, po, 3 mg/kg; remark: listed apart in the source
Description: Drug concentration in Sprague-Dawley rat plasma at 3 mg/kg, po administered as single dose and stimulated with ACTH for 4 hrs measured after 1.5 hrs

in vivo [14] = settings: rat, po, 5 mg/kg; remark: listed apart in the source
Description: AUClast in rat at 5 mg/kg, po

L-type calcium channel = L-type calcium channel (Homo sapiens, UniProt O60840+Q01668+Q13698+Q13936); test: in vitro
Description: Inhibition of L-type calcium channel (unknown origin) at 10 uM relative to control

in vitro [15] = settings: dog, plasma
Description: Plasma protein binding in dog at 1 uM

Melanocortin receptor 4 = Melanocortin receptor 4 (Homo sapiens, UniProt P32245)
Melanocortin receptor 4, sequence (P32245 whole entry): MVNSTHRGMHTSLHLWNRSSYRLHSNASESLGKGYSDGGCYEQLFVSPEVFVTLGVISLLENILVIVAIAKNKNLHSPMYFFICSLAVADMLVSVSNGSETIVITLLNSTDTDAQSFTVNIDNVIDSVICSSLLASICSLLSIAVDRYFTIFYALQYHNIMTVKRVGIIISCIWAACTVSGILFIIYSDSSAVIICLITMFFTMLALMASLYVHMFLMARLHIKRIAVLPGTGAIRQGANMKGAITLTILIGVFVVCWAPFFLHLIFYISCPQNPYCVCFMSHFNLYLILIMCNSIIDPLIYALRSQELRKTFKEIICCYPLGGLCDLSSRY

in vivo [16] = settings: Sprague-Dawley, rat, plasma, po, 30 mg/kg; remark: listed apart in the source
Description: Drug concentration in Sprague-Dawley rat plasma at 30 mg/kg, po administered as single dose and stimulated with ACTH for 1 hr measured after 1.5 hrs

in vitro [17] = settings: dog, MDCK
Description: Apparent permeability in MDCK cells

in vitro [18] = settings: rat, plasma
Description: Plasma protein binding in rat at 1 uM

in vivo [19] = settings: dog, po, 5 mg/kg
Description: Oral bioavailability in dog at 5 mg/kg

in vivo [20] = settings: rat, iv, 5 mg/kg; remark: listed apart in the source
Description: Clearance in rat at 5 mg/kg, iv

in vivo [21] = settings: dog, iv, 5 mg/kg
Description: Clearance in dog at 5 mg/kg, iv

in vivo [22] = settings: rat, iv, 5 mg/kg; remark: listed apart in the source
Description: Volume of distribution at steady state in rat at 5 mg/kg, iv

Cytochrome P450 2D6 = Cytochrome P450 2D6 (Homo sapiens, UniProt P10635)
Cytochrome P450 2D6, sequence (P10635 whole entry): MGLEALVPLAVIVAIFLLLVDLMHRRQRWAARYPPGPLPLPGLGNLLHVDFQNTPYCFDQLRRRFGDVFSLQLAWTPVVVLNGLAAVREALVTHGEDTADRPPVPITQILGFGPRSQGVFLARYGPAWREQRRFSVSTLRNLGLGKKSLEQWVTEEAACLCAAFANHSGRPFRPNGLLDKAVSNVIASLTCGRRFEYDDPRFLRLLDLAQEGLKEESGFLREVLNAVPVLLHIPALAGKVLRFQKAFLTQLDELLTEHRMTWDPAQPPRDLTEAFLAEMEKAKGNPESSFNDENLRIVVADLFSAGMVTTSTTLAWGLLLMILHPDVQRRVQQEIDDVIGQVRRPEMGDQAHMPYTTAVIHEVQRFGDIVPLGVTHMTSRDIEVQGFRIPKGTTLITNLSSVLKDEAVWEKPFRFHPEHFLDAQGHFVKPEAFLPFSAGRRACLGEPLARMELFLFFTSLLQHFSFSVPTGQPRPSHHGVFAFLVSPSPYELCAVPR
Description: Time dependent inhibition of CYP2D6 (unknown origin)

in vivo [23] = settings: dog, po, 5 mg/kg; remark: listed apart in the source
Description: AUClast in dog at 5 mg/kg, po

in vivo [24] = settings: Sprague-Dawley, rat, plasma, po, 30 mg/kg; remark: listed apart in the source
Description: Drug concentration in Sprague-Dawley rat plasma at 30 mg/kg, po administered as single dose and stimulated with ACTH for 48 hrs measured after 0.5 hrs

in vivo [25] = settings: Sprague-Dawley, rat, plasma, po, 30 mg/kg; remark: listed apart in the source
Description: Drug concentration in Sprague-Dawley rat plasma at 30 mg/kg, po administered as single dose and stimulated with ACTH for 24 hrs measured after 0.5 hrs

Melanocortin receptor 5 = Melanocortin receptor 5 (Homo sapiens, UniProt P33032)
Melanocortin receptor 5, sequence (P33032 whole entry): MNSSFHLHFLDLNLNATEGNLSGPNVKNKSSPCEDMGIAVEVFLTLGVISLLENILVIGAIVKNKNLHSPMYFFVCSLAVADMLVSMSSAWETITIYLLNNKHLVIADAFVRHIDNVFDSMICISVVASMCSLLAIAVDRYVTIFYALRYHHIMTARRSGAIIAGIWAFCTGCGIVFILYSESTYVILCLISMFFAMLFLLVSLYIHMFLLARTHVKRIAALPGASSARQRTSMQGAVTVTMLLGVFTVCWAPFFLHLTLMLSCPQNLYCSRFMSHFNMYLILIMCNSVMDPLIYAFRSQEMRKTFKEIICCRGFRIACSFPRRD

[26] = target: 5-hydroxytryptamine receptor 1B (Homo sapiens, UniProt P28222)
5-hydroxytryptamine receptor 1B, sequence (P28222 whole entry): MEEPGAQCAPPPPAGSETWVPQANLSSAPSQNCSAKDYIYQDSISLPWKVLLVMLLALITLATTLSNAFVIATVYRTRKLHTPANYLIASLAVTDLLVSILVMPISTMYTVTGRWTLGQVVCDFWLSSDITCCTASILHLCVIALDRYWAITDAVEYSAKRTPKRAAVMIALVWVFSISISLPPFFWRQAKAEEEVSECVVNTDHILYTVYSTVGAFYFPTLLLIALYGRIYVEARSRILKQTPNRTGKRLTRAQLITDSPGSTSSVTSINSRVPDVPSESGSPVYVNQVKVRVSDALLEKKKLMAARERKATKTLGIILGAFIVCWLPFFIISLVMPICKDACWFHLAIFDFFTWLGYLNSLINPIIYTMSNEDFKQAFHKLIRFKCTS
Description: Antagonist activity at 5-HT1B (unknown origin)

MDR1 = test: in vitro; settings: dog, MDCK-MDR1
Description: Efflux ratio of apparent permeability across basolateral to apical over apical to basolateral in MDCK-MDR1 cells

in vivo [27] = settings: Sprague-Dawley, rat, plasma, po, 3 mg/kg; remark: listed apart in the source
Description: Drug concentration in Sprague-Dawley rat plasma at 3 mg/kg, po administered as single dose and stimulated with ACTH for 1 hr measured after 1.5 hrs

in vivo [28] = settings: Sprague-Dawley, rat, plasma, po, 30 mg/kg; remark: listed apart in the source
Description: Drug concentration in Sprague-Dawley rat plasma at 30 mg/kg, po administered as single dose and stimulated with ACTH for 4 hrs measured after 1.5 hrs

Cytochrome P450 2C9 = Cytochrome P450 2C9 (Homo sapiens, UniProt P11712)
Cytochrome P450 2C9, sequence (P11712 whole entry): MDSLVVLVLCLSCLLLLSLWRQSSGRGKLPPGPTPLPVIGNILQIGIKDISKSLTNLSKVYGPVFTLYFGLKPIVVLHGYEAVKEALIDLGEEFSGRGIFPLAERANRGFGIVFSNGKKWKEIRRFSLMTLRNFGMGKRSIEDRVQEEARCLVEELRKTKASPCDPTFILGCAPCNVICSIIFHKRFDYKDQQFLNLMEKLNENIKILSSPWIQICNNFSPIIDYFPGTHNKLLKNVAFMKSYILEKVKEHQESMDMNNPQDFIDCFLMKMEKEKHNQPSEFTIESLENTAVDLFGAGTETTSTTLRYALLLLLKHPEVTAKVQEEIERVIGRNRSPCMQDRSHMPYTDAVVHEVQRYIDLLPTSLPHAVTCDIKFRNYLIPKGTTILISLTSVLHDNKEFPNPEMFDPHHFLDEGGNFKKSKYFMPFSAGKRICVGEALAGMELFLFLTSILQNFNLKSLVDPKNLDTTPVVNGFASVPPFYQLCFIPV
Description: Inhibition of CYP2C9 (unknown origin)

in vivo [29] = settings: dog, iv, 5 mg/kg; remark: listed apart in the source
Description: Volume of distribution at steady state in dog at 5 mg/kg, iv

in vivo [30] = settings: rat, po, 5 mg/kg; remark: listed apart in the source
Description: Cmax in rat at 5 mg/kg, po

[31] = target: Melanocyte-stimulating hormone receptor (Homo sapiens, UniProt Q01726)
Melanocyte-stimulating hormone receptor, sequence (Q01726 whole entry): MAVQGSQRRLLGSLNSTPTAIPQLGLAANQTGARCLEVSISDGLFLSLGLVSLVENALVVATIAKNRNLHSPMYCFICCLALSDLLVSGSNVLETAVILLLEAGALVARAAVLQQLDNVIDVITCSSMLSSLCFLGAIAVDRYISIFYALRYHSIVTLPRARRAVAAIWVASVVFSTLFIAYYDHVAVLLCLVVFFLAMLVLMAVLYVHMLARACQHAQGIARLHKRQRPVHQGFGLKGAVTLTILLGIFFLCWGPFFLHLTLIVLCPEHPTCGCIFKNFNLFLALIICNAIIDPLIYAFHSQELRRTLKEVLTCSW

in vivo [32] = settings: dog, iv, 5 mg/kg; remark: listed apart in the source
Description: Half life in dog at 5 mg/kg, iv

in vivo [33] = settings: Sprague-Dawley, rat, plasma, po, 3 mg/kg; remark: listed apart in the source
Description: Drug concentration in Sprague-Dawley rat plasma at 3 mg/kg, po administered as single dose and stimulated with ACTH for 1 hr measured after 0.5 hr

in vivo [34] = settings: Sprague-Dawley, rat, plasma, po, 30 mg/kg; remark: listed apart in the source
Description: Drug concentration in Sprague-Dawley rat plasma at 30 mg/kg, po administered as single dose and stimulated with ACTH for 1 hr measured after 0.5 hr

in vitro [35] = settings: human, plasma
Description: Plasma protein binding in human at 1 uM

in vivo [36] = settings: dog, po, 5 mg/kg; remark: listed apart in the source
Description: Cmax in dog at 5 mg/kg, po

in vivo [37] = settings: rat, po, 10 mg/kg; remark: listed apart in the source
in vivo [38] = settings: rat, po, 10 mg/kg; remark: listed apart in the source

Adrenocorticotropic hormone receptor, sequence (Q01718 whole entry): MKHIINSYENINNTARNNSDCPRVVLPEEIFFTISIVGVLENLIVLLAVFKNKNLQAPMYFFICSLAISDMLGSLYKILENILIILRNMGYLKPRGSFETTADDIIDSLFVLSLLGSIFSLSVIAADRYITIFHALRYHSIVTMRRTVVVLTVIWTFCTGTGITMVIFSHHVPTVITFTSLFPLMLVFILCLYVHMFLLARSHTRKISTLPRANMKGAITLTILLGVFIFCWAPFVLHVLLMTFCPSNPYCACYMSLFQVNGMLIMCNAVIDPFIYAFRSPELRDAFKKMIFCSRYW

half-life (in vitro [1]): 0.717 h
bioavailability (in vivo [2]): 17%
Ki [3]: 0.3 nM
half-life (in vitro [4]): 0.583 h
half-life (in vivo [5]): 2.2 h
AUC(0-t) (in vivo [6]): 1.44 µM·h
Compound: CCOc1ncccc1-c1ccc(N2CCN(C(=O)c3ccc(Cl)cc3C(F)(F)F)C[C@H]2CC)c(C(=O)N[C@@H]2CCN(C)C2)n1

Compound: CCOc1ncccc1-c1ccc(N2CCN(C(=O)C3(C(F)(F)F)CCC3)C[C@H]2CC)c(C(=O)N[C@@H]2CN3CCC2CC3)n1
Ki [3]: 4.4 nM

Ki [3]: 0.96 nM
Compound: CCOc1ncccc1-c1ccc(N2CCN(C(=O)c3ccc(Cl)cc3C(F)(F)F)C[C@H]2CC)c(C(=O)NCCNC)c1

half-life (in vitro [1]): 3.85 h
Ki [3]: 1.3 nM
half-life (in vitro [4]): 1.93 h
Compound: CCOc1ccccc1-c1ccc(N2CCN(C(=O)C3(C(F)(F)F)CCC3)C[C@H]2CC)c(C(=O)N[C@@H]2CCN(C)C2)n1

IC50 (Cytochrome P450 2C19): > 10000 nM
half-life (in vitro [1]): 3.85 h
concentration at 0.5 h (in vivo [7]): 1460 ng/mL
concentration at 0.5 h (in vivo [8]): 0.927 ng/mL
concentration at 0.5 h (in vivo [9]): 127 ng/mL
Ki [3]: 2.1 nM
IC50 (Melanocortin receptor 3): > 10000 nM
bioavailability (in vivo [10]): 47%
IC50 (Cytochrome P450 3A4): > 10000 nM
half-life (in vivo [11]): 2.73 h
concentration at […] (in vivo [12]): 14.1 ng/mL
concentration at […] (in vivo [13]): 87.5 ng/mL
AUC(0-t) (in vivo [14]): 5.2 µM·h
inhibition at 10 µM (L-type calcium channel): > 70%
half-life (in vitro [4]): 3.85 h
fraction unbound at 1 µM (in vitro [15]): 0.132
IC50 (Melanocortin receptor 4): > 10000 nM
concentration at […] (in vivo [16]): 1530 ng/mL
Papp (in vitro [17]): 1.9 ×10⁻⁶ cm/s
fraction unbound at 1 µM (in vitro [18]): 0.026
bioavailability (in vivo [19]): 100%
clearance (in vivo [20]): 24.5 mL/min/kg
clearance (in vivo [21]): 14.2 mL/min/kg
Vd (in vivo [22]): 3.19 L/kg
IC50 (Cytochrome P450 2D6): > 10000 nM
AUC(0-t) (in vivo [23]): 4.97 µM·h
concentration at 0.5 h (in vivo [24]): 0.88 ng/mL
concentration at 0.5 h (in vivo [25]): 20 ng/mL
IC50 (Melanocortin receptor 5): > 10000 nM
IC50 [26]: 750 nM
efflux ratio (MDR1): 95
concentration at […] (in vivo [27]): 93.9 ng/mL
concentration at […] (in vivo [28]): 1260 ng/mL
IC50 (Cytochrome P450 2C9): > 10000 nM
Vd (in vivo [29]): 10.5 L/kg
Cmax (in vivo [30]): 1220 nM
IC50 [31]: > 10000 nM
half-life (in vivo [32]): 9.55 h
concentration at 0.5 h (in vivo [33]): 110 ng/mL
concentration at 0.5 h (in vivo [34]): 1140 ng/mL
fraction unbound at 1 µM (in vitro [35]): 0.014
Cmax (in vivo [36]): 650 nM
Compound: CCOc1ccccc1-c1ccc(N2CCN(C(=O)C3(C(F)(F)F)CCC3)C[C@H]2CC)c(C(=O)N[C@@H]2CN3CCC2CC3)n1 [ATUMELNANT]

Ki [3]: 0.9 nM
Compound: CCOc1ncccc1-c1ccc(N2CCN(C(=O)c3ccc(Cl)cc3C(F)(F)F)C[C@H]2CC)c(C(=O)NCCN(C)C)c1F

Ki [3]: 47 nM
Compound: CC[C@@H]1CN(C(=O)c2ccc(C(F)(F)F)cc2Cl)CCN1c1ccc(-c2ccccc2F)cc1C(=O)NCCN

half-life (in vitro [1]): 3.85 h
Ki [3]: 0.63 nM
half-life (in vitro [4]): 0.383 h
Compound: CCOc1ncccc1-c1ccc(N2CCN(C(=O)C3(C(F)(F)F)CCCC3)C[C@H]2CC)c(C(=O)N[C@@H]2CCN(C)C2)n1

half-life (in vitro [1]): > 11.6 h
Ki [3]: 3.7 nM
half-life (in vitro [4]): 1.28 h
Compound: CCOc1ncccc1-c1ccc(N2CCN(C(=O)C3(C(F)(F)F)CCC3)C[C@H]2CC)c(C(=O)N[C@@H]2CCN(C)C2)n1

Ki [3]: 1.1 nM
Compound: CCOc1ncccc1-c1ccc(N2CCN(C(=O)c3ccc(Cl)cc3C(F)(F)F)C[C@H]2CC)c(C(=O)NCCN)c1

Ki [3]: 25 nM
Compound: CC[C@@H]1CN(C(=O)c2ccc(C(F)(F)F)cc2Cl)CCN1c1ccc(-c2ccccc2C#N)cc1C(=O)NCCN

half-life (in vitro [1]): 0.533 h
Ki [3]: 0.4 nM
half-life (in vitro [4]): 1.15 h
Compound: CCOc1ncccc1-c1ccc(N2CCN(C(=O)C34CCC(C(F)(F)F)(CC3)CC4)C[C@H]2CC)c(C(=O)N[C@@H]2CCN(C)C2)n1

Ki [3]: 1.6 nM
Compound: CCOc1ccccc1-c1ccc(N2CCN(C(=O)c3ccc(Cl)cc3C(F)(F)F)C[C@H]2CC)c(C(=O)NCCN)c1

Ki [3]: 1.5 nM
Compound: CCOc1ncccc1-c1ccc(N2CCN(C(=O)c3ccc(Cl)cc3C(F)(F)F)C[C@H]2CC)c(C(=O)NCCN(C)C)c1

Ki [3]: 2 nM
Compound: CCOc1ccccc1-c1ccc(N2CCN(C(=O)c3ccc(C(F)(F)F)cc3Cl)C[C@H]2CC)c(C(=O)NCCN)c1

Ki [3]: 36 nM
Compound: CC[C@@H]1CN(C(=O)c2ccc(C(F)(F)F)cc2Cl)CCN1c1ccc(-c2cccc(F)c2Cl)cc1C(=O)NCCN

Ki [3]: 21 nM
Compound: CC[C@@H]1CN(C(=O)c2ccc(C(F)(F)F)cc2Cl)CCN1c1ccc(-c2ccccc2Cl)cc1C(=O)NCCN

Ki [3]: 4.8 nM
Cmax (in vivo [37]): 2.8 nM
AUC(0-t) (in vivo [38]): 0.0081 µM·h
Compound: CCOc1ccccc1-c1ccc(N2CCN(C(=O)c3ccc(Cl)cc3Cl)C[C@H]2CC)c(C(=O)NCCN)c1

half-life (in vitro [1]): 0.35 h
bioavailability (in vivo [2]): 8%
Ki [3]: 0.39 nM
half-life (in vitro [4]): 0.383 h
half-life (in vivo [5]): 1.6 h
AUC(0-t) (in vivo [6]): 0.349 µM·h
Compound: CCOc1ncccc1-c1ccc(N2CCN(C(=O)c3ccc(Cl)cc3C(F)(F)F)C[C@H]2CC)c(C(=O)NCCN(C)C)n1

half-life (in vitro [1]): 5.78 h
Ki [3]: 0.32 nM
half-life (in vitro [4]): 3.85 h
half-life (in vivo [5]): 4 h
AUC(0-t) (in vivo [6]): 0.279 µM·h
Compound: CCOc1ncccc1-c1ccc(N2CCN(C(=O)c3ccc(Cl)cc3C(F)(F)F)C[C@H]2CC)c(C(=O)N[C@@H]2CCNC2)n1
